Experimental data from ChEMBL document CHEMBL3301361, “Experimental in vitro DMPK and physicochemical data on a set of publicly disclosed compounds”.
In brackets after ≈: the same amount, converted by molar mass.

Tests used:
physchem [1] = conditions: octan-1-ol/water
physchem [2] = conditions: pH 7.4 buffer

logD (physchem [1]; pH 7.4, LogD7.4)	solubility thermodynamic (physchem [2]) [µM]	Compound	logD (physchem [1]; pH 7.4)
1.36	832 (≈ 381 µg/mL)	COC[C@H](C)Oc1cc(Oc2cc(F)cc(F)c2)cc(C(=O)Nc2ccc(C(=O)O)cn2)c1	
2.9	93.3 (≈ 31.6 µg/mL)	CCCSc1nc2ccc(NC(=O)CCNC(N)=O)cc2s1	
1.85	2.3 (≈ 0.829 µg/mL)	Nc1ncc(-c2cnn(C3CCNCC3)c2)cc1-c1nc2ccccc2o1	
1.94	7.4 (≈ 2.01 µg/mL)	O=C(Nc1nc2c(=O)[nH]cnc2s1)c1ccccc1	
2.85	417 (≈ 98.1 µg/mL)	Cc1ccccc1Nc1ncnc2ccccc12	
1.67	40.7 (≈ 16.4 µg/mL)	CCN(CC)C(=O)Cc1csc(NS(=O)(=O)c2cccc(Cl)c2C)n1	
3.3	72.4 (≈ 19.6 µg/mL)	O=C(NCCSCc1ccccc1)c1ccccc1	
3.3	25.1 (≈ 7.36 µg/mL)	COc1ccc(-c2nc3n(c2Br)CCC3)cc1	
2.87	12 (≈ 5.59 µg/mL)	Clc1cc(Nc2ncnc3[nH]nc(OCCN4CCCC4)c23)ccc1OCc1ccccn1	
2.81	151 (≈ 78.1 µg/mL)	C[C@@H](Oc1cccc2ncnc(Nc3ccc4c(cnn4Cc4cscn4)c3)c12)C(=O)N1CCOCC1	
2.7	26.9 (≈ 6.38 µg/mL)	Nc1ccc2cccc(Nc3ncccn3)c2n1	
3.22	12.6 (≈ 6.4 µg/mL)	C[C@H](CN(C)C(=O)CO)Oc1cccc2ncnc(Nc3ccc(OCc4ccccn4)c(Cl)c3)c12	
1.4	246 (≈ 46 µg/mL)	Nc1ncnc(Nc2ccccc2)n1 [AMANOZINE]	
3.57	81.3 (≈ 37.5 µg/mL)	Cc1ccc(C(=O)Oc2ccc(C(O)CNC(C)(C)C)cc2OC(=O)c2ccc(C)cc2)cc1 (stereo not given) [BITOLTEROL]	
2.85	13.2 (≈ 3.71 µg/mL)	Cn1c(C#N)ccc1-c1ccc2c(c1)C(C)(C)OC(=O)N2	
3	2.1 (≈ 1 µg/mL)	CC(C)OC(=O)N1CCC(Oc2ncnc3c2cnn3-c2ccc(S(C)(=O)=O)cc2F)CC1	
0.8	380 (≈ 177 µg/mL)	O=C(c1cc(Cc2n[nH]c(=O)c3ccccc23)ccc1F)N1CCN(C(=O)C2CCOC2)CC1 (stereo not given)	
1.25	372 (≈ 151 µg/mL)	Cc1cn(C[C@H]2CN(c3ccc(C4=CCS(=O)(=O)CC4)c(F)c3)C(=O)O2)nn1	
2.75	603 (≈ 315 µg/mL)	CCN1C(=O)N(C)c2cnc(Nc3ccc(C(=O)NC4CCN(C)CC4)cc3OC)nc2N1C1CCCC1	
3.01	6.2 (≈ 2.68 µg/mL)	COc1cc(Nc2ncnc(Nc3c(Cl)ccc4c3OCO4)n2)cc(OC)c1OC	
2.4	851 (≈ 165 µg/mL)	CCOc1ccc2nc(N)sc2c1	
3.42	4.8 (≈ 1.83 µg/mL)	Cc1cccc(Nc2nnc(C(=O)Nc3ccc(N4CCOCC4)nc3)o2)c1	
2.69	759 (≈ 214 µg/mL)	NCC(O)(c1ccc(Cl)cc1)c1ccc(Cl)cc1	
1.34	490 (≈ 182 µg/mL)	O=CN(O)C1(CS(=O)(=O)N2CCN(c3ccc(F)cc3)CC2)CCC1	
1.68	575 (≈ 121 µg/mL)	Nc1nccc(-c2c[nH]c3ccccc23)n1	
1.3	39.8 (≈ 13.7 µg/mL)	O=S(=O)(c1cccc(-c2cn3cccnc3n2)c1)N1CCOCC1	
2.6	204 (≈ 71.6 µg/mL)	CCCc1c(O)c(O)c(C(=O)O)c2cc(Cc3ccccc3)c(C)cc12	

logD (physchem [1]; pH 7.4, LogD7.4)	solubility thermodynamic (physchem [2]) [µM]	Compound	logD (physchem [1]; pH 7.4)
2.57	26.3 (≈ 7.16 µg/mL)	c1ccc(-c2n[nH]cc2-c2ccnc3ccccc23)nc1	
3	79.4 (≈ 33.9 µg/mL)	CC[C@@H]1COCCN1c1cc(C2(S(C)(=O)=O)CC2)nc(-c2cccc3[nH]ccc23)n1	
3.29	2.2 (≈ 1.08 µg/mL)	CCOc1cc2nccc(Oc3cnc(CC(=O)Nc4n[nH]c(CC)c4C)c(OC)c3)c2cc1OC	
3.1	22.9 (≈ 11.6 µg/mL)	COc1cc(N2CCN(C(C)=O)CC2)ccc1Nc1ncc(Cl)c(-c2cnc3cc(CO)ccn23)n1	
1.02	57.5 (≈ 15.5 µg/mL)	O=c1[nH][nH]c(=O)c2c1[nH]c1cc(Cl)cc(Cl)c12	
3.2	0.5 (≈ 0.261 µg/mL)	Cc1ccc(NC(=O)c2cccc(N3CCOCC3)c2)cc1NC(=O)c1ccc(OCc2ccncc2)cc1	
2.36	91.2 (≈ 36.2 µg/mL)	CN1CCN(c2ccc(NC(=O)c3nnc(Nc4ccccc4F)o3)cn2)CC1	
3.75	2 (≈ 0.687 µg/mL)	CCn1c2ccccc2c2cc(NC(=O)CCc3ccncc3)ccc21	
0.78	331 (≈ 163 µg/mL)	CNc1cccc(CCCc2ccc(C[C@H](NC(=O)c3c(Cl)cccc3Cl)C(=O)O)s2)n1	
2.8	12.3 (≈ 5.7 µg/mL)	Cc1nc(S(C)(=O)=O)ccc1Nc1ncnc(OC2CCN(C(=O)OC(C)C)CC2)c1C	
3.07	120 (≈ 50.8 µg/mL)	COCCCc1cc(Nc2nc(NCc3cc(C)no3)ncc2Br)[nH]n1	
3.89	1.7 (≈ 0.7 µg/mL)	CCn1c(=O)ccc2cc(COc3cc(F)cc(C4(OC)CCOCC4)c3)ccc21	
1.01	309 (≈ 86.3 µg/mL)	CNC(=O)c1ccc2c(=O)cc(-c3cccnc3)[nH]c2c1	
2.8	24.5 (≈ 5.79 µg/mL)	O=c1[nH]nc(Cc2ccccc2)c2ccccc12	
1.53	144 (≈ 34.6 µg/mL)	Cc1onc(CO)c1C(=O)Nc1nccs1	
2.89	26.9 (≈ 15.6 µg/mL)	COc1cc2c(Nc3ncc(CC(=O)Nc4cccc(F)c4)s3)ncnc2cc1OCCCN1CCC(CO)CC1	
3.1	15.1 (≈ 6.42 µg/mL)	Cc1ccc(NC(=O)c2ccnc(N3CCOCC3)c2)cc1Nc1ccnc(Cl)n1	
3.1	219 (≈ 70.1 µg/mL)	C[C@H](NC1=NC(=O)[C@@](C)(C(F)(F)F)S1)c1ccccc1F	
3.57	288 (≈ 119 µg/mL)	O=C(Nc1ccc(Cl)c(Cl)c1)N1CCN(C[C@@H]2CCCN(C3CC3)C2)CC1	
2.93	4.2 (≈ 1.5 µg/mL)	O=C(NC1CCCCC1)C1CCCN(S(=O)(=O)c2cccs2)C1 (stereo not given)	
1.4	70.8 (≈ 21.5 µg/mL)	COc1cc(OC)nc(-n2ncc(Cl)c(Cl)c2=O)n1	
2.5	4.7 (≈ 1.92 µg/mL)	NC1(c2ccc(-c3nc4ccn5c(=O)[nH]nc5c4cc3-c3ccccc3)cc2)CCC1 [MK-2206]	
3.21	5.4 (≈ 1.53 µg/mL)	Cn1c(C#N)ccc1-c1cc(F)c2c(c1)C(C)(C)C(=O)N2	
2.2	5.1 (≈ 2.79 µg/mL)	COc1cc(C(=O)NS(=O)(=O)c2ccccc2)ccc1Cn1ccc2ccc(NC(=O)OC3CCCC3)cc21	
3.2	66.1 (≈ 31.7 µg/mL)	COc1cc(N2CCN(CCO)CC2)ccc1Nc1ncc(Cl)c(-c2cnc3ccccn23)n1	
2.76	407 (≈ 190 µg/mL)	Cc1c(-c2ccccc2F)c(=O)n(C[C@H](N)c2ccccc2)c(=O)n1Cc1c(F)cccc1F	
2.87	170 (≈ 36 µg/mL)	O=C(COc1ccccc1)c1ccccc1	

logD (physchem [1]; pH 7.4, LogD7.4)	solubility thermodynamic (physchem [2]) [µM]	Compound	logD (physchem [1]; pH 7.4)
2	490 (≈ 230 µg/mL)	CCN(CCN(C)C)S(=O)(=O)c1ccc(-c2cnc(N)c(C(=O)Nc3cccnc3)n2)cc1	
2.9	16.6 (≈ 9.42 µg/mL)	O=C(CCN1CCCCC1)Nc1ccc(-c2cccn3c(=O)cc(N4CCOCC4)nc23)c2sc3ccccc3c12	
1.86	813 (≈ 232 µg/mL)	Cc1cc(CNc2nccc(Nc3cc(C)[nH]n3)n2)on1	
4.35	148 (≈ 81.2 µg/mL)	Cc1cc(C)cc(-c2[nH]c3ccc(C(C)(C)C(=O)N4C5CCC4CC5)cc3c2[C@H](C)CNCCc2ccncc2)c1	
2.72	339 (≈ 116 µg/mL)	NC1(Cc2ccc(Cl)cc2)CCN(c2ncnc3[nH]ccc23)CC1	
1.16	97.7 (≈ 24.7 µg/mL)	Nc1nc(N)c2nc(-c3ccccc3)c(N)nc2n1	
3.42	42.7 (≈ 17.8 µg/mL)	COc1cc2ncnc(Nc3cccc(Cl)c3F)c2cc1CN(C)[C@@H](C)C(N)=O	
3.5	10 (≈ 3.58 µg/mL)	COc1cc2ncc(C(N)=O)c(Nc3cccc(Cl)c3)c2cc1OC	
2.8	302 (≈ 161 µg/mL)	COCCN(c1ccnc(Nc2cc(N3CCOCC3)cc(N3CCOCC3)c2)n1)c1cc(CO)ccc1C	
2.3	25.1 (≈ 9.7 µg/mL)	N#Cc1cnn(-c2ccccc2)c1NC(=O)CN1CCN(c2ccccc2)CC1	
3.1	87.1 (≈ 27.9 µg/mL)	C[C@H](NC1=NC(=O)[C@](C)(C(F)(F)F)S1)c1ccccc1F	
2.06	141 (≈ 76 µg/mL)	O=C(Cc1cc(Nc2ncnc3cc(OCCCN4CCC[C@@H]4CO)ccc23)n[nH]1)Nc1cccc(F)c1F	
2.7	15.8 (≈ 5.87 µg/mL)	CCOC(=O)c1ccc(OCCC2CN(c3ccc(C)nn3)CCO2)cc1 (stereo not given)	
1.2	447 (≈ 132 µg/mL)	Cc1c[nH]c(/C=C2\C(=O)Nc3ccccc32)c1CCC(=O)O	
2.34	18.2 (≈ 6.08 µg/mL)	FC(F)(F)c1nnc2ccc(NCn3nnc4ccccc43)nn12	
	5.6 (≈ 1.41 µg/mL)	CCn1c2ccccc2c2cc(NC(C)=O)ccc21	3.5
3.1	339 (≈ 109 µg/mL)	C[C@H](NC1=NC(=O)C(C)(C(F)(F)F)S1)c1ccccc1F (stereo not given in full)	
3.63	2.7 (≈ 1.06 µg/mL)	CCCc1cc(Nc2nc(NCc3cc(C)no3)ncc2Br)n[nH]1	
2.8	2 (≈ 0.713 µg/mL)	CCc1ccc(CCOc2ccc(CC3SC(=O)NC3=O)cc2)nc1 (stereo not given) [PIOGLITAZONE]	
3.9	0.3 (≈ 0.0997 µg/mL)	COc1cc2ncnc(Nc3cc4ccccc4cn3)c2cc1OC	
3.35	13.5 (≈ 5.3 µg/mL)	CN1CCC(n2cc(-c3cnc(N)c(-c4nc5ccc(F)cc5o4)c3)cn2)CC1	
3.02	91.2 (≈ 37.3 µg/mL)	COc1cc(OC2CCN(C)CC2)c2c(Nc3cccc4c3OCO4)ncnc2c1	
3.3	20 (≈ 8.9 µg/mL)	COc1cc2ncnc(Nc3ccc(F)c(Cl)c3)c2cc1OCCCN1CCCCC1	
3.27	46.8 (≈ 17.6 µg/mL)	CCCSc1nc(NC)ccc1C(=O)N[C@H]1C2CC3CC1C[C@](O)(C3)C2	
1.95	23.4 (≈ 5.86 µg/mL)	CN(C)c1cccc2c(S(N)(=O)=O)cccc12	

Compound	logD (physchem [1]; pH 7.4, LogD7.4)	solubility thermodynamic (physchem [2]) [µM]	logD (physchem [1]; pH 7.4)
CNC(=O)c1ccc(N2C(=S)N(c3ccc(C#N)c(C(F)(F)F)c3)C(=O)C23CCC3)cc1F		1.6 (≈ 0.762 µg/mL)	3.3
